In ChEMBL document CHEMBL2429780, “Synthesis, antimicrobial and cytotoxic activity of 2-azetidinone derivatives of pyridyl benzimidazoles” (Med Chem Res, 2013):
Activity calls are given as the source filed them.

Columns and labels:
Format in all cases: functional, organism-based
Streptococcus pyogenes = experiment: Antibacterial activity against Streptococcus pyogenes MTCC 442 assessed as growth inhibition at 12.5 to 1000 ug/mL after 24 hrs by broth dilution assay
Pseudomonas aeruginosa = experiment: Antibacterial activity against Pseudomonas aeruginosa MTCC 1688 assessed as growth inhibition at 12.5 to 1000 ug/mL after 24 hrs by broth dilution assay
Staphylococcus aureus = experiment: Antibacterial activity against Staphylococcus aureus MTCC 96 assessed as growth inhibition at 12.5 to 1000 ug/mL after 24 hrs by broth dilution assay
Candida albicans = experiment: Antifungal activity against Candida albicans assessed as growth inhibition at 12.5 to 1000 ug/mL after 48 hrs by broth dilution assay
Aspergillus niger = experiment: Antifungal activity against Aspergillus niger assessed as growth inhibition at 12.5 to 1000 ug/mL after 48 hrs by broth dilution assay
Aspergillus clavatus = experiment: Antifungal activity against Aspergillus clavatus assessed as growth inhibition at 12.5 to 1000 ug/mL after 48 hrs by broth dilution assay
Escherichia coli = experiment: Antibacterial activity against Escherichia coli MTCC 443 assessed as growth inhibition at 12.5 to 1000 ug/mL after 24 hrs by broth dilution assay

Measured: growth inhibition (GI)

COc1cccc(-c2cc(-c3nc4ccccc4[nH]3)nc(N)c2C#N)c1
inactive: all assays above

COc1ccc(-c2cc(-c3nc4ccccc4[nH]3)nc(N)c2C#N)cc1
inactive: all assays above

Cc1ccccc1-c1cc(-c2nc3ccccc3[nH]2)nc(N)c1C#N
inactive: all assays above

N#Cc1c(-c2ccc(O)cc2)cc(-c2nc3ccccc3[nH]2)nc1N
inactive: all assays above
